The text below walks through data of patent US12338249B2, “Crystalline forms of N-(4-(1-(2,6-difluorobenzyl)-5-((dimethylamino)methyl)-3-(6-methoxy-3-pyridazinyl)-2,4-dioxo-1,2,3,4-tetrahydrothieno[2,3-d]pyrimidin-6-yl)phenyl)-N′-methoxyurea” (Sumitomo Pharma Switzerland GmbH, priority 2019, dated 2025).

A value given as a limit tells only on which side of the number the result lay.

Usually Aqueous Solubility stands for how much of the substance goes into solution per volume. The solubility is the dissolved amount per volume that the medium holds. Lower therefore signals little dissolved substance.

The series in a line: Thermodynamic aqueous solubility of crystalline Forms I and II of Compound 1 (HPLC). In kind it is physicochemical. As to the method:
Substance contents in test solutions were measured using HPLC Prominence/PDA detector (Shimadzu Corporation). The analytical conditions and calculation formula were as follows: […]
The thermodynamic solubility of Forms I and II was determined at pH 1.2 and pH 6.8 and in 20 mM GCDC, pH 6.8 at 37° C. with an equilibrium period for 2, 6 and 24 hours.

The mark [1] stands for this setting: 20 mM GCDC (sodium glycochenodeoxycholate), pH 6.8, 37° C., 2 hrs equilibrium, average n=3.
The mark [2] stands for this setting: 20 mM GCDC (sodium glycochenodeoxycholate), pH 6.8, 37° C., 6 hrs equilibrium, average n=3.
Where [3] appears, read: 20 mM GCDC (sodium glycochenodeoxycholate), pH 6.8, 37° C., 24 hrs equilibrium, average n=3.
Setting [4] is: pH 6.8, 37° C., 2 hrs equilibrium, average n=3.
[5] abbreviates: pH 6.8, 37° C., 6 hrs equilibrium, average n=3.
Where [6] appears, read: pH 6.8, 37° C., 24 hrs equilibrium, average n=3.

As for `CONC(=O)Nc1ccc(-c2sc3c(c2CN(C)C)c(=O)n(-c2ccc(OC)nn2)c(=O)n3Cc2c(F)cccc2F)cc1` [Form I, N-(4-(1-(2,6-difluorobenzyl)-5-((dimethylamino)methyl)-3-(6-methoxy-3-pyridazinyl)-2,4-dioxo-1,2,3,4-tetrahydrothieno[2,3-d]pyrimidin-6-yl)phenyl)-N′-methoxyurea], the “Aqueous Solubility” value is, setting by setting: under setting [1], 960 µg/mL; under setting [2], 980 µg/mL; under setting [3], 970 µg/mL; (pH 1.2, 37° C., 2 hrs equilibrium, average n=3) above 10000 µg/mL; (pH 1.2, 37° C., 6 hrs equilibrium, average n=3) above 10000 µg/mL; (pH 1.2, 37° C., 24 hrs equilibrium, average n=3) above 10000 µg/mL. The “Aqueous Solubility” value worked out at 80 µg/mL under setting [4], 80 µg/mL under setting [5] and 70 µg/mL under setting [6]. Moreover, the “Solubility compared between Form I and Form II (in words)” value (20 mM GCDC, pH 6.8, 37° C.) was “lower solubility than Form II”; the “Solubility compared between Form I and Form II (in words)” value (pH 6.8, 37° C.) is “lower solubility than Form II”.

As for `CONC(=O)Nc1ccc(-c2sc3c(c2CN(C)C)c(=O)n(-c2ccc(OC)nn2)c(=O)n3Cc2c(F)cccc2F)cc1` [Form II, N-(4-(1-(2,6-difluorobenzyl)-5-((dimethylamino)methyl)-3-(6-methoxy-3-pyridazinyl)-2,4-dioxo-1,2,3,4-tetrahydrothieno[2,3-d]pyrimidin-6-yl)phenyl)-N′-methoxyurea], the “Aqueous Solubility” value worked out at 2750 µg/mL under setting [1]; 3300 µg/mL under setting [2]; 4120 µg/mL under setting [3]; 520 µg/mL under setting [4]; 510 µg/mL under setting [5]; 520 µg/mL under setting [6]. For the same molecule, the “Aqueous solubility compared between Form II and Form I (in words)” value (37° C., overall comparison of Tables 3 and 4) is “more soluble than Form I of Compound 1”. The same molecule had a solubility at 2 h (aqueous solution, pH 1.2, 37 °C, pH 1.2, simulated gastric fluid, thermodynamic from solid, 2 hrs equilibrium, average n=3) above 10000 µg/mL. In addition, the solubility at 6 h (aqueous solution, pH 1.2, 37 °C, pH 1.2, simulated gastric fluid, thermodynamic from solid, 6 hrs equilibrium, average n=3) was above 10000 µg/mL. The same molecule returned a solubility at 24 h (aqueous solution, pH 1.2, 37 °C, pH 1.2, simulated gastric fluid, thermodynamic from solid, 24 hrs equilibrium, average n=3) above 10000 µg/mL. In addition, the “Solubility compared between Form I and Form II (in words)” value (pH 6.8, 37° C., listed as Form II of Compound 1) is on record as “higher aqueous solubility”.
